Data reported in patent publication US20230416297A1, “ANDROGEN RECEPTOR MODULATORS” (TRUSTEES OF DARTMOUTH COLLEGE, priority 2020, published 2023).
Where “and” joins values, the source holds several entries; their conditions need not be identical. Identical values can stand only once.

Experiments:
androgen receptor [1] = target: T1, androgen receptor (Homo sapiens, UniProt P10275); experiment: AR binding (Ki, Table A)
T1 sequence (P10275 1-920): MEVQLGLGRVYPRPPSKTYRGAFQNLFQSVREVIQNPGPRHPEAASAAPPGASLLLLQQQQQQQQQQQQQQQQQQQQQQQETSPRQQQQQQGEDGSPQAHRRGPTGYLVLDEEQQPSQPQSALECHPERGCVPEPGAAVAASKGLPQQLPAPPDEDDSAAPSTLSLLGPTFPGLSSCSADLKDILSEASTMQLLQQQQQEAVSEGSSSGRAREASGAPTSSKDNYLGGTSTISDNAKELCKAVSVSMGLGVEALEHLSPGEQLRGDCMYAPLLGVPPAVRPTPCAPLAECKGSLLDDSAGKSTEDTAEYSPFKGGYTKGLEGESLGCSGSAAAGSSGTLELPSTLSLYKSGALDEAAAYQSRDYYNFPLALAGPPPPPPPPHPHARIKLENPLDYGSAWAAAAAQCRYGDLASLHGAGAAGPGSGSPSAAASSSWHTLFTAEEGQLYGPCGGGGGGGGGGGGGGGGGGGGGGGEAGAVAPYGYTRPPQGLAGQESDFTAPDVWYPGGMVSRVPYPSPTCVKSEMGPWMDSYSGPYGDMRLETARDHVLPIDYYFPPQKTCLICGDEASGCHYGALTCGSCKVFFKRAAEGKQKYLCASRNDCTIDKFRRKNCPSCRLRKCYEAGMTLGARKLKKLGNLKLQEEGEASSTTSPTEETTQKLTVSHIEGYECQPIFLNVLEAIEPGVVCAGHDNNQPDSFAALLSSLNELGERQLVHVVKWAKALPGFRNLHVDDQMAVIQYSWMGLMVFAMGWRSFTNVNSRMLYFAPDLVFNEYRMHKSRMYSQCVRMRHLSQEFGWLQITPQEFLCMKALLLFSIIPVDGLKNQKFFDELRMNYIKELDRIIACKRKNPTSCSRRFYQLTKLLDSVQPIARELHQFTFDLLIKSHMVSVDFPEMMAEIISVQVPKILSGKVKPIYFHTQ
From the text: (§1) The activity of a compound can be determined using various known methods. For example, AR assays can be used. Such AR assays include binding assays using, for example, cells transfected with the human androgen receptor. Several cell based model systems that allow sensitive detection and monitoring of steroids or other compounds with AR bioactivity are known. Most cell based AR reporter models use transgenic gene constructs that include an androgen response element (ARE) that controls reporter gene (e.g., lucifersrase) expression. For example, a human AR Reporter Assay System is commercially available from Indigo Biosciecnes. The principle application of such an assay product is to quantify functional activities, either agonist or antagonist, that a compound may exert against the human androgen receptor. […] In addition, the anti-proliferative activity of a compound can be determined using various known methods, including in vitro and in vivo antiproliferative assays using cancer cell lines such as a prostate cancer cell line.

androgen receptor [2] = target: T1, androgen receptor; experiment: human AR agonist assay (Indigo Biosciences); format: cell-based; parameters: purchased Indigo Biosciences; settings: for HillSlope: agonist mode, Table 1 / FIG. 1
From the text: as §1
(§2) The activity of certain compounds were tested in a human AR agonist assay and a human AR antagonist assay (Indigo Biosciences).

androgen receptor [3] = target: T1, androgen receptor; experiment: human AR antagonist assay (Indigo Biosciences); format: cell-based; parameters: purchased Indigo Biosciences
From the text: as §1, §2

[4] = antagonist mode, Table 2 / FIG. 2
[5] = antagonist mode, Table 3 / FIG. 3

Compound	Ki (androgen receptor [1]) [nM]	HillSlope (androgen receptor [2])	IC50 (androgen receptor [3]; Table A) [nM]	HillSlope (androgen receptor [3]; [4])	IC50 (androgen receptor [3]; [4]) [nM]	other results
CC(=O)O[C@@H]1CC2=C3CCC4=CC(=O)CC[C@@H]4[C@@]3(C)CC[C@]2(C)C1 [Compound 101, (9R,10S,13R,16S)-9,13-dimethyl-3-oxo-2,3,6,7,9,10,11,12,13,15,16,17-dodecahydro-1H-cyclopenta[a]phenanthren-16-yl acetate]	7350	1.063	413	2.100	413	EC50 (androgen receptor [2]): 10000 nM
C[C@]12CC[C@@]3(C)C(=C1C[C@@H](O)C2)CCC1=CC(=O)CC[C@@H]13 [Compound 102, (9R,10S,13R,16S)-16-hydroxy-9,13-dimethyl-1,2,6,7,9,10,11,12,13,15,16,17-dodecahydro-3H-cyclopenta[a]phenanthren-3-one]	919	1.300	654	1.728	654	EC50 (androgen receptor [2]): 23000 nM
C[C@]12CC[C@@]3(C)C(=C1C[C@H](O)C2)CCC1=CC(=O)CC[C@@H]13 [Compound 103, (9R,10S,13R,16R)-16-hydroxy-9,13-dimethyl-1,2,6,7,9,10,11,12,13,15,16,17-dodecahydro-3H-cyclopenta[a]phenanthren-3-one]	3460	≈1.247	1240	1.906	1240	–
C[C@@]12CC[C@]3(C)C(=C1C[C@H](O)C2)CCC1=CC(=O)CC[C@H]13 [Compound 104]	–	–	4300	–	–	–
C[C@@]12CC[C@]3(C)C(=C1C[C@@H](O)C2)CCC1=CC(=O)CC[C@H]13 [Compound 105]	–	–	1500	–	–	–
C[C@]12CC[C@@]3(C)C(=C1C[C@@H](O)C2)CCC1=C[C@@H](O)CC[C@@H]13 [Compound 107]	–	–	4800	–	–	–
CC(C)CCC[C@]12CC[C@@]3(C)C(=C1C[C@@H](O)C2)CCC1=CC(=O)CC[C@@H]13 [Compound 108]	–	–	–	–	–	HillSlope (androgen receptor [3]; [5]): 1.225
CC(C)CCC[C@]12CC[C@@]3(C)C(=C1C[C@@H](O)C2)CCC1=CC(=O)CC[C@@H]13 [Compound 110]	–	–	–	–	–	HillSlope (androgen receptor [3]; [5]): 0.6338
CC(C)(O)C(=O)Nc1ccc([N+](=O)[O-])c(C(F)(F)F)c1 [hydroxyflutamide, reference compound]	–	–	–	–	–	HillSlope (androgen receptor [3]): 1.305 and 1.653
